Reference: patent US9393216B2, “Vaginal matrices: nanofibers for contraception and prevention of HIV infection” (priority 2012, dated 2016)
Read-outs that look alike come from different tables or passages of the source.

Tests used:
[1] = system: HIV-1 BaL; assay: HIV-1 BaL infection inhibition assay in TZM-bl cells (luciferase); type: cell-based
Procedure: TZM-bl cells and HIV-1 BaL isolate are obtained. TZM-bl cells are a HeLa derived cell line that express CD4, CCR5 and CXCR4. Cells re plated in a black 96-well plate at a density of 5,000 cells/well (Corning, Corning, N.Y.) and maintained in Dulbecco's Modified Eagle Medium (DMEM) (Gibco Life Technologies) with 10% fetal bovine serum (Hyclone), 1% 100× penicillin/streptomycin (Invitrogen) and 1% 200 mM L-glutamine. […] Fibers were sterilized by UV irradiation for one hour per side prior to use. Treatments were added at a volume of 50 μL. […] Percent viability is calculated by normalizing to the average of media control wells (n=9). For composite fabrics, the drug concentration shown applies to both the amount of LNG and of TFV (1:1 ratio). […] Data represents triplicate wells with error bars indicating standard deviation.
Inhibition of infectious activity is quantified by measuring luminescence on a plate reader (Tecan). IC50 values of drug compounds re estimated using sigmoidal regression in Graphpad Prism, version 5.0.
TZM-bl cells and HIV-1 BaL isolate re obtained from the NIH AIDS Research and Reference Reagent Program, Division of AIDS, NIAID, NIH (http://www.aidsreagent.org/). TZM-bL cells, a derived HeLa cell line that expresses CD4, CCR5, and CXCR4, were added to black 96-well plates (Corning, Corning, N.Y.) with Dulbecco's Modified Eagle Medium (DMEM) (Gibco Life Technologies) with 10% fetal bovine serum (Hyclone), 1% 100× penicillin/streptomycin (Invitrogen), and 1% 200 mM L-glutamine (Invitrogen) with […] at a density of 5,000 cells/well. […] Fibers re sterilized by UV irradiation for 2 h (1 h per side). Treatments were added in […]. For the HIV-infectious inhibition assay, […] (240 TCID/well) are added to wells 1 h after drug treatment. […] Infectious activity is quantified by measuring luminescence on a plate reader (Tecan).
TZM-bl cells and HIV-1 BaL isolate re obtained from the NIH AIDS Research and Reference Reagent Program, Division of AIDS, NIAID, NIH (http://www.aidsreagent.org/). TZM-bL cells, a derived HeLa cell line that expresses CD4, CCR5, and CXCR4, are added to black 96-well plates (Corning, Corning, N.Y.) with Dulbecco's Modified Eagle Medium (DMEM) (Gibco Life Technologies) with 10% fetal bovine serum (Hyclone), 1% 100× penicillin/streptomycin (Invitrogen), and 1% 200 mM L-glutamine (Invitrogen) with 50 μL/well at a density of 5,000 cells/well. […] Treatments are diluted serially and randomly assigned to treatments A-E. A second operator, blinded to the identity of the treatments, added each in 50 μL volumes into duplicate wells (n=1 was used for PVP (D) and PEO Tween 20 (E) formulations only due to space limitations on the 96-well plate). 100 μL of HIV-BaL (240 TCID/well) was added to wells 1 h after drug treatment. […] Infectious activity was quantified by measuring luminescence on a plate reader (Tecan).

[2] = system: TZM-bl cells; assay: Cytotoxicity in TZM-bl cells (CellTiter Blue); type: cell-based; conditions: for Cytotoxicity to TZM-bl cells: 48 h exposure to 24 h eluates of PVA fabrics, 20 wt.% theoretical loading
Procedure: TZM-bl cells and HIV-1 BaL isolate are obtained. TZM-bl cells are a HeLa derived cell line that express CD4, CCR5 and CXCR4. Cells re plated in a black 96-well plate at a density of 5,000 cells/well (Corning, Corning, N.Y.) and maintained in Dulbecco's Modified Eagle Medium (DMEM) (Gibco Life Technologies) with 10% fetal bovine serum (Hyclone), 1% 100× penicillin/streptomycin (Invitrogen) and 1% 200 mM L-glutamine. […] Fibers were sterilized by UV irradiation for one hour per side prior to use. Treatments were added at a volume of 50 μL. Cytotoxicity is analyzed using the CellTiter Blue assay (Promega) to assess TZM-bl cell viability after 48 h of exposure to drug eluates from fiber release in cDMEM (24 h release, triplicate wells for each sample). Percent viability is calculated by normalizing to the average of media control wells (n=9). […] Positive control (12.5% DMSO) results in 4.6% viability. Data represents triplicate wells with error bars indicating standard deviation.

[3] = Drug stability in fibers stored at room temperature; type: physicochemical; conditions: PLLA/PEO meshes, at least five months
Procedure: Plates were then digitized using a scanner. Drug loading and stability is measured using fibers stored at room temperature (19-22° C.) for at least five months. […] UV-HPLC is used to quantify amount of drug in samples as previously described. Encapsulation efficiency is calculated as the amount of drug in drug-loaded fibers relative to the amount of drug detected in dissolved blank fibers spiked at 1% (wt/wt) drug loading.

[4] = DPV release from PVP and EC fibers; type: physicochemical
[5] = system: HIV; conditions: cited from earlier work
[6] = system: human sperm in whole semen; assay: Sperm viability assay (Trypan blue); type: cell-based
Procedure: (§1) Sperm is obtained from two donors for sperm motility experiments. A third donor is recruited for sperm viability assays with glycerol monolaurate. Swim out sperm are obtained as described previously. Briefly, one can place 0.5 mL aliquots of semen below 3 mL of Ham's F-10 media (Sigma-Aldrich) with 0.5% human serum albumin (Sigma-Aldrich) for 75 min in 5% CO2 and 37° C. The aspirate, enriched for motile sperm, was centrifuged at 300 RCF for five min and resuspended in fresh Ham's F-10 to a concentration of 20×10^6 sperm/mL. The effect of drug dilutions on sperm motility are performed both in whole semen and in swimout sperm by adding […] of sperm and drugs to a slide and observing sperm motility with phase contrast either at 200× and 37° C. (ECLIPSE Ti, Nikon), or by adding 200 […] and quantifying sperm motility with computer aided motility analysis for up to 7 min after the addition of drug. Multiple media only controls are run to ensure that any observed change in motility was minimally dependent upon time since ejaculation. Sperm viability was measured by adding 20 […] of Trypan blue (Sigma-Aldrich) and counting 100 live or dead sperm based on head staining after a 10 min incubation using brightfield microscopy.

[7] = system: human swim-out sperm; assay: Sperm motility assay; type: cell-based; conditions: for Inhibition of sperm function: motility of purified (swim-out) human sperm
Procedure: as §1

[8] = system: HIV-1 BaL; conditions: free (unformulated) drug; as reported previously; read-out: IC50 of free TFV; cited from earlier work
[9] = Cumulative release of TFV from PVA fiber meshes at pH 4.3 and pH 7.4; type: physicochemical; conditions: pH 4.3 and 7.4, small and large scale
Procedure: FIG. 26. Burst release of TFV within 5 minutes at pH 4.3 and 7.4 is similar for meshes electrospun on small scale and large scales. Graphs display cumulative release of TFV in pH 4.3 citrate buffer (a,c) or pH 7.4 PBS (b,d) for fibers spun on small scale versus large scale instruments for pH adjusted and unadjusted solutions.

[10] = In vitro release of TFV and LNG from PVA fabrics in 1:1 isopropanol:water; type: physicochemical
Procedure: Drug loading is analyzed by dissolving approximately 5 mg of fibers in 20 mL of a mixture of 1:1 isopropanol:water in a glass vial. Triplicate samples are allowed to dissolve overnight at 37° C. on a rotational shaker and concentration is quantified using a Shimadzu Prominence LC20AD UV-HPLC system. A Phenomenex Luna C18 column (5 μM, 250×4.6 mm) and LC Solutions software are used to analyze samples.
A method for dual analysis of TFV and LNG is developed using the following gradient method using mobile phase A (0.1% formic acid in water) and mobile phase B (acetonitrile). The run consisted of 0-5 minutes 72% mobile phase A, 5-10 minutes ramp to 15% mobile phase A, 10-20 minutes 15% mobile phase A, 20-25 minutes ramp to 72% mobile phase A, 25-30 minutes 72% mobile phase A. The total method time is 30 minutes, with an oven temperature of 30° C., a flow rate of 1 mL/min, and an injection volume of 20 μL. LNG is detected at 238 nm at a retention time of 18.5 minutes. TFV is detected at 259 nm at a retention time of 2.3 minutes.
In vitro release was analyzed in a 1:1 solution of isopropanol:water due to the limited solubility of LNG in water. Sink conditions were maintained throughout the study for both drugs in the release media. Approximately 5 mg of fibers were prepared in triplicate and an appropriate volume of release media was added to maintain sink conditions of 2.6 mg/mL LNG as has been reported. Samples were incubated at 37° C. on a rotational shaker, and 200 μL samples of release media was taken as indicated. Fresh media was added to replace sample volume at each timepoint.

[11] = Human immunodeficiency virus 1, BAL, TZM-bl, read-out: Final ARV drug concentration at IC50, drugs released from EC fibers (sustained)
[12] = Human immunodeficiency virus 1, BAL, TZM-bl, read-out: Final ARV drug concentration at IC50, drugs released from PVA fibers (pericoital)
[13] = single-drug PVA fibers, calculated for assumed 500 mg of fabric

## Cc1cn([C@H]2C[C@H](N=[N+]=[N-])[C@@H](CO)O2)c(=O)[nH]c1=O [AZT, 3′-azido-3′-deoxythymidine]
[1]; Human immunodeficiency virus 1, BAL, TZM-bl, read-out: IC50, drug eluted from fibers
  IC50: 84 nM
[1]; Human immunodeficiency virus 1, BAL, TZM-bl, read-out: IC50, unformulated drug
  IC50: 120 nM
[2]; compared with media controls
  Toxicity to TZM-bL cells: nontoxic
[3]
  Initially-loaded drug detected in stored fiber meshes: 0.95%

## C[S+](C)[O-] [DMSO]
[2]
  Viability, positive control: 4.6%

## Cc1cc(C)c(Nc2ccnc(Nc3ccc(C#N)cc3)n2)c(C)c1 [DPV, dapivirine]
[4]; from EC fibers
  DPV release characteristics: sustained release
[4]; from PVP fibers
  DPV release characteristics: burst-release
[5]
  Duration of prevention of localized and disseminated infection posttreatment: ≤ 6 days

## Cc1cc(C#N)cc(C)c1Oc1nc(Nc2ccc(C#N)cc2)nc(N)c1Br [ETR, etravirine]
[1]; [11]
  IC50: 2.7 nM
[1]; [12]
  IC50: 0.7 nM

## CCCCCCCCCCCC(=O)OCC(O)CO (centres unmarked) [GML, glycerol monolaurate]
[6]; 5% (wt/vol)
  Reduction of sperm viability: 33.1%
[6]; concentration not given
  Reduction of sperm viability: 19.6%
[7]
  Concentrations that inhibited sperm motility (complete spermiostasis): 0.05-0.5 % (wt/vol)
[7]; at 2 min
  EC50, reduction of sperm motility: 0.005 % wt/vol
[7]; no complete spermiostasis
  Lowest concentration with reduction in motility: ≥ 0.00005 % (wt/vol)

## C#C[C@]1(O)CC[C@H]2[C@@H]3CCC4=CC(=O)CC[C@@H]4[C@H]3CC[C@@]21CC [LNG, levonorgestrel]
[2]
  Cytotoxicity to TZM-bl cells: induced by high concentrations

## Cc1nnc(C(=O)NC(C)(C)c2nc(C(=O)NCc3ccc(F)cc3)c(O)c(=O)n2C)o1 [RAL, raltegravir]
[1]; [11]
  IC50: 3.8 nM
[1]; [12]
  IC50: 1.2 nM

## C[C@H](Cn1cnc2c(N)ncnc21)OCP(=O)(O)O [TFV, tenofovir]
[8]
  IC50: 1800 nM
[9]
  Time of burst release of TFV: ≤ 5 min
[2]
  Cytotoxicity to TZM-bl cells: not
[10]; [13]
  Cumulative mass of drug released after 15 minutes: ~40 mg
  Cumulative mass of drug released after 60 minutes: ~60 mg
[10]; single-drug or 1:1 TFV:LNG PVA fabrics, 20 wt.% theoretical loading
  Time to 100% TFV release: ≤ 30 min

## ferrous D-gluconate [FeGluc]
[7]
  Inhibition of sperm function: ineffective

## maraviroc [MVC]
[1]; drugs released from EC fibers (sustained), read-out: Final ARV drug concentration at IC50
  IC50: 4.2 nM
[1]; drugs released from PVA fibers (pericoital), read-out: Final ARV drug concentration at IC50
  IC50: 1.6 nM
[1]; eluates released from PLLA/PEO fibers, read-out: IC50, drug eluted from fibers
  IC50: 2.3 nM
[1]; pure maraviroc and maraviroc released from PVP/PEO electrospun formulations
  Globally shared best fit IC50: 6.96 ng/mL
[1]; pure maraviroc and maraviroc released from PVP/PEO electrospun formulations, read-out: Globally shared best fit IC50
  IC50: 13.5 nM
[1]; unformulated, read-out: IC50, unformulated drug
  IC50: 0.9 nM

## methyl-β-cyclodextrin [MBCD]
[7]
  Inhibition of sperm function: ineffective
